The values that follow come from patent US8772302B2, “GPR 119 agonists” (Cadila Healthcare Limited, priority 2009, dated 2014).

This test relates to Sprague Dawley rats. Nature of the test: Feed intake in Sprague Dawley rats. The following applies: cumulative feed intake vs vehicle. The test is classed as in vivo, rat. The text has this:
In Vivo Efficacy Studies: Feed Intake in Sprague Dawley Rats:
Sprague Dawley rats of 6-8 week age are used for this experiment they are kept for acclimatization in reversed light/dark cycle for 15 days. Animals will have free access to a standard chow diet and water during acclimatization period. After 15 days reversed light/dark cycle acclimatization animals are trained for fasting induced feed intake for 5 days till they show consistent feed intake. Grouping was done based on the monitored feed intake during the training days. On treatment day each group of animals are dosed with test compound or vehicle by appropriate routes of administration (orally or intraperitoneally). Exactly 30 min. after treatment, measured amount of standard chow diet is provided and recorded as O-min feed offered. Then subsequently 2, 4, 6 and 24 hour after O-min, feed intake is measured and the cumulative feed intakes are calculated. The change in cumulative feed intake as compared to vehicle treated control at each time point is calculated for test compound.

As to `Cc1c(Oc2ccc([C@H]3CO[S@@](=O)OC3)cc2)ncnc1OC1CCN(c2ncccn2)CC1` [Example 5, cis-5-(4-((5-methyl-6-((1-(pyrimidin-2-yl)piperidin-4-yl)oxy)pyrimidin-4-yl)oxy)phenyl)-1,3,2-dioxathiane 2-oxide], for the setting “intraperitoneal, 25 mg/kg”, the “% reduction in food in take, 2 hour” value amounted to 35%; the “% reduction in food in take, 4 hour” value is given as 17%; the “% reduction in food in take, 6 hour” value came out at 21%; the “% reduction in food in take, 24 hour” value was 8%.
On to `Cc1c(Oc2ccc(C[C@H]3CO[S@@](=O)OC3)cc2)ncnc1OC1CCN(c2nc(C(C)C)no2)CC1` [Example 29, cis-5-(4-((6-((1-(3-isopropyl-1,2,4-oxadiazol-5-yl)piperidin-4-yl)oxy)-5-methylpyrimidin-4-yl)oxy)benzyl)-1,3,2-dioxathiane 2-oxide], for which, for the setting “intraperitoneal, 25 mg/kg”, the “% reduction in food in take, 2 hour” value turned out to be 50%; the “% reduction in food in take, 4 hour” value was 24%; the “% reduction in food in take, 6 hour” value turned out to be 5%; the “% reduction in food in take, 24 hour” value is given as 4%.
For `Cc1c(Oc2ccc(C[C@H]3CO[S@](=O)OC3)cc2)ncnc1OC1CCN(c2nc(C(C)C)no2)CC1` [Example 30, trans-5-(4-((6-((1-(3-isopropyl-1,2,4-oxadiazol-5-yl)piperidin-4-yl)oxy)-5-methylpyrimidin-4-yl)oxy)benzyl)-1,3,2-dioxathiane 2-oxide] the same measures were 39%, 31%, 5% and 9%.
For `CCc1cnc(N2CCC(Oc3ncnc(Oc4ccc(C[C@H]5CO[S@@](=O)OC5)cc4)c3C)CC2)nc1` [Example 31, cis-5-(4-((6-((1-(5-ethylpyrimidin-2-yl)piperidin-4-yl)oxy)-5-methylpyrimidin-4-yl)oxy)benzyl)-1,3,2-dioxathiane 2-oxide] the same measures were 28%, 34%, 28% and 9%.
Regarding `Cc1c(Oc2ccc([C@H]3CO[S@@](=O)OC3)cc2)ncnc1OC1CCN(C(=O)Nc2ccc(Cl)cc2Cl)CC1` [Example 45, cis-N-(2,4-dichlorophenyl)-4-((5-methyl-6-(4-(2-oxido-1,3,2-dioxathian-5-yl)phenoxy)pyrimidin-4-yl)oxy)piperidine-1-carboxamide], where the note is “oral, 50 mg/kg”, the “% reduction in food in take, 2 hour” value was found to be 28%; the “% reduction in food in take, 4 hour” value is 28%; the “% reduction in food in take, 6 hour” value was found to be 16%; the “% reduction in food in take, 24 hour” value stood at 7%.
As to `Cc1c(Oc2ccc([C@H]3CO[S@@](=O)OC3)cc2)ncnc1OC1CCN(C(=O)OC(C)C)CC1` [Example 47, cis-isopropyl 4-((5-methyl-6-(4-(2-oxido-1,3,2-dioxathian-5-yl)phenoxy)pyrimidin-4-yl)oxy)piperidine-1-carboxylate], where the note is “oral, 50 mg/kg”, the “% reduction in food in take, 2 hour” value turned out to be 23%; the “% reduction in food in take, 4 hour” value is 16%; the “% reduction in food in take, 6 hour” value was 3%; the “% reduction in food in take, 24 hour” value is 3%.
As to `Cc1c(Oc2ccc(C3COS(=O)OC3)cc2)ncnc1OC1CCN(C(=O)OC(C)C)CC1` (stereo not drawn) [Example 48, trans-isopropyl 4-((5-methyl-6-(4-(2-oxido-1,3,2-dioxathian-5-yl)phenoxy)pyrimidin-4-yl)oxy)piperidine-1-carboxylate], under “oral, 50 mg/kg”, the “% reduction in food in take, 2 hour” value is recorded as 32%; the “% reduction in food in take, 4 hour” value is reported as 17%; the “% reduction in food in take, 6 hour” value is recorded as 17%; the “% reduction in food in take, 24 hour” value is reported as 10%.
For `CC(C)(C)OC(=O)N1CCC(c2nc(COc3ccc(CC4COS(=O)OC4)cc3)cs2)CC1` (stereo not drawn) [Example 55, cis-tert-butyl 4-(4-((4-((2-oxido-1,3,2-dioxathian-5-yl)methyl)phenoxy)methyl)thiazol-2-yl)piperidine-1-carboxylate], where the note is “oral, 50 mg/kg”, the “% reduction in food in take, 2 hour” value is on record as 33% and the “% reduction in food in take, 4 hour” value came out at 5.3%.
